The results in this text go back to US7244758B2, “N-type calcium channel blockers” (Neuromed Pharmaceuticals Ltd., priority 2003, dated 2007).

The target of test [1] is T1, rat brain N-type calcium channel subunits (α1B+α2δ+β1b) (Rattus norvegicus, UniProt Q02294).
T1 construct: expressed in transfected cells; host or cells: HEK 293
In words: N-type calcium channel block, whole cell patch clamp in HEK 293 cells. Particulars: holding −80 mV to +10 mV, 5 mM Ba. In kind it is cell-based. On the procedure:
Antagonist activity was measured using whole cell patch recordings on human embryonic kidney cells either stably or transiently expressing rat α1B+α2δ+β1b channels (N-type channels) with 5 mM barium as a charge carrier. P/Q-type channels (α1A+α2δ+β1b cDNA subunits) and L-type channels (α1C+α2δ+β1b cDNA subunits) were also transiently expressed in HEK 293 cells.
For transient expression, host cells, such as human embryonic kidney cells, HEK 293 (ATCC# CRL 1573) were grown in standard DMEM medium supplemented with 2 mM glutamine and 10% fetal bovine serum. HEK 293 cells were transfected by a standard calcium-phosphate-DNA coprecipitation method using the rat α1B+β1b+α2δ N-type calcium channel subunits in a vertebrate expression vector (for example, see Current Protocols in Molecular Biology).
After an incubation period of from 24 to 72 hrs the culture medium was removed and replaced with external recording solution (see below). Whole cell patch clamp experiments were performed using an Axopatch 200B amplifier (Axon Instruments, Burlingame, Calif.) linked to an IBM compatible personal computer equipped with pCLAMP software. Borosilicate glass patch pipettes (Sutter Instrument Co., Novato, Calif.) were polished (Microforge, Narishige, Japan) to a resistance of about 4 MΩ when filled with cesium methanesulfonate internal solution (composition in MM: 109 CsCH3 SO4, 4 MgCl2, 9 EGTA, 9 HEPES, pH 7.2). Cells were bathed in 5 mM Ba^++ (in mM: 5 BaCl2, 1 MgCl2, 10 HEPES, 40 tetraethylammonium chloride, 10 glucose, 87.5 CsCl pH 7.2). […] Drugs were perfused directly into the vicinity of the cells using a microperfusion system.
Normalized dose-response curves were fit (Sigmaplot 4.0, SPSS Inc., Chicago, Ill.) by the Hill equation to determine IC50 values. Steady-state inactivation curves were plotted as the normalized test pulse amplitude following 5 s inactivating prepulses at +10 mV increments. Inactivation curves were fit (Sigmaplot 4.0) with the Boltzman equation, Ipeak (normalized)=1/(1+exp((V−Vh)z/25.6)), where V and Vh are the conditioning and half inactivation potentials, respectively, and z is the slope factor.
N-type calcium channel blocking activity was assayed in human embryonic kidney cells, HEK 293, stably transfected with the rat brain N-type calcium channel subunits (α1B+α2δ+β1b cDNA subunits). Alternatively, N-type calcium channels (α1B+α2δ+β1b cDNA subunits), L-type channels (α1C+α2δ+β1b cDNA subunits) and P/Q-type channels (α1A+α2δ+β1b cDNA subunits) were transiently expressed in HEK 293 cells. Briefly, cells were cultured in Dulbecco's modified eagle medium (DMEM) supplemented with 10% fetal bovine serum, 200 U/ml penicillin and 0.2 mg/ml streptomycin at 37° C. with 5% CO2. At 85% confluency cells were split with 0.25% trypsin/1 mM EDTA and plated at 10% confluency on glass coverslips. At 12 hours the medium was replaced and the cells transiently transfected using a standard calcium phosphate protocol and the appropriate calcium channel cDNA's. Fresh DMEM was supplied and the cells transferred to 28° C./5% CO2. Cells were incubated for 1 to 2 days to whole cell recording.
Whole cell patch clamp experiments were performed using an Axopatch 200B amplifier (Axon Instruments, Burlingame, Calif.) linked to a personal computer equipped with pCLAMP software. The external and internal recording solutions contained, respectively, 5 mM BaCl2, […], 10 mM HEPES, 40 mM TEACl, 10 mM glucose, 87.5 mM CsCl (pH 7.2) and 108 mM CsMS, 4 mM MgCl2, 9 mM EGTA, 9 mM HEPES (pH 7.2). Currents were typically elicited from a holding potential of −80 mV to +10 mV using Clampex software (Axon Instruments).

Another test deals with rat formalin model. Put plainly: Formalin-induced pain model (paw flinches). In kind it is in vivo. Particulars: 30 mg/kg IP, 10 min before formalin, saline control=100%. On the procedure: The effects of intrathecally delivered compounds of the invention on the rat formalin model were measured. The compounds were reconstituted to stock solutions of approximately 10 mg/ml in propylene glycol. Eight Holtzman male rats of 275-375 g size were randomly selected per test article.
The following study groups were used, with test article, vehicle control (propylene glycol) and saline delivered intraperitoneally (IP):
Prior to initiation of drug delivery baseline behavioral and testing data were taken.
On the morning of testing, a small metal band (0.5 g) was loosely placed around the right hind paw. The rat was placed in a cylindrical Plexiglas chamber for adaptation a minimum of 30 minutes. Test Article or Vehicle Control Article was administered 10 minutes prior to formalin injection (50 μl of 5% formalin) into the dorsal surface of the right hindpaw of the rat. The animal was then placed into the chamber of the automated formalin apparatus where movement of the formalin injected paw was monitored and the number of paw flinches tallied by minute over the next 60 minutes (Malmberg, A. B., et al., Anesthesiology (1993) 79:270-281).
Results are presented as Maximum Possible Effect±SEM, where saline control=100%.

Test [2] has as its target T2, human α1G T-type channels (Homo sapiens, UniProt O43497).
T2 construct: expressed in transfected cells
Put plainly: Block of α1G T-type channels, whole-cell patch clamp in HEK cells. In kind it is cell-based. On the procedure: Standard patch-clamp techniques were employed to identify blockers of T-type currents. Briefly, previously described HEK cell lines stably expressing human α1G T-type channels were used for all the recordings (passage #: 4-20, 37° C., 5% CO2). To obtain T-type currents, plastic dishes containing semi-confluent cells were positioned on the stage of a ZEISS AXIOVERT S100 microscope after replacing the culture medium with external solution (see below). Whole-cell patches were obtained using pipettes (borosilicate glass with filament, O.D.: 1.5 mm, I.D.: 0.86 mm, 10 cm length), fabricated on a SUTTER P-97 puller with resistance values of ˜5 MΩ (see below for internal solution).
In the non-inactivating protocol, the holding potential is set at −110 mV and with a pre-pulse at −100 mV for 1 second prior to the test pulse at −40 mV for 50 ms. […]
Test compounds were dissolved in external solution, 0.1-0.01% DMSO. After ˜10 min rest, they were applied by gravity close to the cell using a WPI microfil tubing. The “non-inactivated” pre-pulse was used to examine the resting block of a compound. The “inactivated” protocol was employed to study voltage-dependent block. However, the initial data shown below were mainly obtained using the non-inactivated protocol only. IC50 values are shown for various compounds of the invention in Table 6.

Setting [3] is: low frequency stimulation 0.067 Hz (tonic block), read-out: IC50 at 0.067 Hz.
[4] abbreviates: pulse frequency 0.2 Hz (frequency dependent block), read-out: IC50 at 0.2 Hz.
Where [5] appears, read: non-inactivating protocol, pre-pulse −100 mV (resting block), read-out: IC50 at −100 mV.
Where [6] appears, read: inactivation protocol (voltage-dependent block), read-out: IC50 at −80 mV.

pIC50: −log10 of the molar value. Like-named read-outs stand apart in the source and are kept apart here. Bounds are passed on as bounds.

T2 sequence (O43497 whole entry): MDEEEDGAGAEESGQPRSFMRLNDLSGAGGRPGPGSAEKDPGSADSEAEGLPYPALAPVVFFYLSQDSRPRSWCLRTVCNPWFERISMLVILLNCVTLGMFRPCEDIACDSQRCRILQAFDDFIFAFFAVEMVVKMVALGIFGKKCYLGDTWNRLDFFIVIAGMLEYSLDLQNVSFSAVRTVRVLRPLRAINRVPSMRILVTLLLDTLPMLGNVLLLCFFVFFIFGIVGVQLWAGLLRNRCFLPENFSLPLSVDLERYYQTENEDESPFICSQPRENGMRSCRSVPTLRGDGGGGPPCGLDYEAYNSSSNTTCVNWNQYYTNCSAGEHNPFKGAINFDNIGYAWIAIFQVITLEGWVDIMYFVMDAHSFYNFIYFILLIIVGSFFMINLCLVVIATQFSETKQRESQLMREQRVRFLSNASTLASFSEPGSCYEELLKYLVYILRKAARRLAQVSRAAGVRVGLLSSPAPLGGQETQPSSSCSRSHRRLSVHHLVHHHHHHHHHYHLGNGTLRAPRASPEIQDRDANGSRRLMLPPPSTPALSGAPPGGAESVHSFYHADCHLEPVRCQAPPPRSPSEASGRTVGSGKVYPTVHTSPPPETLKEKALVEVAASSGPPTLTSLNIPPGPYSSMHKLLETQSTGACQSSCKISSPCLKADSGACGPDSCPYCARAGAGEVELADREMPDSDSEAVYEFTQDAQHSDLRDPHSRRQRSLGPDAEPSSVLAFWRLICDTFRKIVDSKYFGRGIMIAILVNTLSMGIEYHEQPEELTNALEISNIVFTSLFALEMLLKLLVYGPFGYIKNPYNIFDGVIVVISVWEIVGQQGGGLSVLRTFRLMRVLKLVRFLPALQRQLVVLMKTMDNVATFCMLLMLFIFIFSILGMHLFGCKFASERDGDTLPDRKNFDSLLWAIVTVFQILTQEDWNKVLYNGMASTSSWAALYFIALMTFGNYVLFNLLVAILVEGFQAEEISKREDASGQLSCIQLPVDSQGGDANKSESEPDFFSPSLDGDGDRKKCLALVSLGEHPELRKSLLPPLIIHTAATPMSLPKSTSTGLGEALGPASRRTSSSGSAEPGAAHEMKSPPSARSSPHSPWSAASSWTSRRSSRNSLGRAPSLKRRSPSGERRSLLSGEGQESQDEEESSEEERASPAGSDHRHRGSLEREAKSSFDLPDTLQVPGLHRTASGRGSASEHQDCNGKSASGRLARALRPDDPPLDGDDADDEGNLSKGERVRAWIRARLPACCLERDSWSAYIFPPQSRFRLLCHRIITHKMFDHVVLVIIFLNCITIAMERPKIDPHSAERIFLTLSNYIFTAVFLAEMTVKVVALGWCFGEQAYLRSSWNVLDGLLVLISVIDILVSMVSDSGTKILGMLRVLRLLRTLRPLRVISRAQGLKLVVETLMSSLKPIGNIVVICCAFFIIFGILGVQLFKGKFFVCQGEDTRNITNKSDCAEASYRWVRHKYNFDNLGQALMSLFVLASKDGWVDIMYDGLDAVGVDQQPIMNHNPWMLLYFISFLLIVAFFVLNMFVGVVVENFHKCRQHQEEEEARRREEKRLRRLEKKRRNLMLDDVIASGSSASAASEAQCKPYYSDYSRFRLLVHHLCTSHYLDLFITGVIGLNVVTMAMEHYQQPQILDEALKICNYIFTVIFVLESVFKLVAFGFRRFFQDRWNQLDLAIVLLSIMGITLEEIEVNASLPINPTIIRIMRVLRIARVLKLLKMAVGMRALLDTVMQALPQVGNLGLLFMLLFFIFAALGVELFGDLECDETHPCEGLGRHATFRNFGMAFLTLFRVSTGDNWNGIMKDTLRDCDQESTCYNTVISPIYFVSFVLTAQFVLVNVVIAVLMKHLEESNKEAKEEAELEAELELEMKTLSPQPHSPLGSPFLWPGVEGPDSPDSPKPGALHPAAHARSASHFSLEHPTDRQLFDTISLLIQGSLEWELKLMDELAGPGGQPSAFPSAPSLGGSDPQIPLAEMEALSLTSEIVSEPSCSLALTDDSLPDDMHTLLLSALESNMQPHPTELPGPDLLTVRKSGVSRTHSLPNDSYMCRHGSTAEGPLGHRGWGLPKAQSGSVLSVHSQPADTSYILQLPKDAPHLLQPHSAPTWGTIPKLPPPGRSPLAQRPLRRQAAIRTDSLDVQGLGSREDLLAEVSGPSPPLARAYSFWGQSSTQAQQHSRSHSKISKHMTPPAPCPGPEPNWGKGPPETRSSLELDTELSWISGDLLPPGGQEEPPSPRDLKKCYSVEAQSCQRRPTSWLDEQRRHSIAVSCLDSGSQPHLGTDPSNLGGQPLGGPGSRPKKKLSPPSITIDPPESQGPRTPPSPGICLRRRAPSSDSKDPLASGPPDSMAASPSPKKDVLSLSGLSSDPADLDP
T1 sequence (Q02294 whole entry): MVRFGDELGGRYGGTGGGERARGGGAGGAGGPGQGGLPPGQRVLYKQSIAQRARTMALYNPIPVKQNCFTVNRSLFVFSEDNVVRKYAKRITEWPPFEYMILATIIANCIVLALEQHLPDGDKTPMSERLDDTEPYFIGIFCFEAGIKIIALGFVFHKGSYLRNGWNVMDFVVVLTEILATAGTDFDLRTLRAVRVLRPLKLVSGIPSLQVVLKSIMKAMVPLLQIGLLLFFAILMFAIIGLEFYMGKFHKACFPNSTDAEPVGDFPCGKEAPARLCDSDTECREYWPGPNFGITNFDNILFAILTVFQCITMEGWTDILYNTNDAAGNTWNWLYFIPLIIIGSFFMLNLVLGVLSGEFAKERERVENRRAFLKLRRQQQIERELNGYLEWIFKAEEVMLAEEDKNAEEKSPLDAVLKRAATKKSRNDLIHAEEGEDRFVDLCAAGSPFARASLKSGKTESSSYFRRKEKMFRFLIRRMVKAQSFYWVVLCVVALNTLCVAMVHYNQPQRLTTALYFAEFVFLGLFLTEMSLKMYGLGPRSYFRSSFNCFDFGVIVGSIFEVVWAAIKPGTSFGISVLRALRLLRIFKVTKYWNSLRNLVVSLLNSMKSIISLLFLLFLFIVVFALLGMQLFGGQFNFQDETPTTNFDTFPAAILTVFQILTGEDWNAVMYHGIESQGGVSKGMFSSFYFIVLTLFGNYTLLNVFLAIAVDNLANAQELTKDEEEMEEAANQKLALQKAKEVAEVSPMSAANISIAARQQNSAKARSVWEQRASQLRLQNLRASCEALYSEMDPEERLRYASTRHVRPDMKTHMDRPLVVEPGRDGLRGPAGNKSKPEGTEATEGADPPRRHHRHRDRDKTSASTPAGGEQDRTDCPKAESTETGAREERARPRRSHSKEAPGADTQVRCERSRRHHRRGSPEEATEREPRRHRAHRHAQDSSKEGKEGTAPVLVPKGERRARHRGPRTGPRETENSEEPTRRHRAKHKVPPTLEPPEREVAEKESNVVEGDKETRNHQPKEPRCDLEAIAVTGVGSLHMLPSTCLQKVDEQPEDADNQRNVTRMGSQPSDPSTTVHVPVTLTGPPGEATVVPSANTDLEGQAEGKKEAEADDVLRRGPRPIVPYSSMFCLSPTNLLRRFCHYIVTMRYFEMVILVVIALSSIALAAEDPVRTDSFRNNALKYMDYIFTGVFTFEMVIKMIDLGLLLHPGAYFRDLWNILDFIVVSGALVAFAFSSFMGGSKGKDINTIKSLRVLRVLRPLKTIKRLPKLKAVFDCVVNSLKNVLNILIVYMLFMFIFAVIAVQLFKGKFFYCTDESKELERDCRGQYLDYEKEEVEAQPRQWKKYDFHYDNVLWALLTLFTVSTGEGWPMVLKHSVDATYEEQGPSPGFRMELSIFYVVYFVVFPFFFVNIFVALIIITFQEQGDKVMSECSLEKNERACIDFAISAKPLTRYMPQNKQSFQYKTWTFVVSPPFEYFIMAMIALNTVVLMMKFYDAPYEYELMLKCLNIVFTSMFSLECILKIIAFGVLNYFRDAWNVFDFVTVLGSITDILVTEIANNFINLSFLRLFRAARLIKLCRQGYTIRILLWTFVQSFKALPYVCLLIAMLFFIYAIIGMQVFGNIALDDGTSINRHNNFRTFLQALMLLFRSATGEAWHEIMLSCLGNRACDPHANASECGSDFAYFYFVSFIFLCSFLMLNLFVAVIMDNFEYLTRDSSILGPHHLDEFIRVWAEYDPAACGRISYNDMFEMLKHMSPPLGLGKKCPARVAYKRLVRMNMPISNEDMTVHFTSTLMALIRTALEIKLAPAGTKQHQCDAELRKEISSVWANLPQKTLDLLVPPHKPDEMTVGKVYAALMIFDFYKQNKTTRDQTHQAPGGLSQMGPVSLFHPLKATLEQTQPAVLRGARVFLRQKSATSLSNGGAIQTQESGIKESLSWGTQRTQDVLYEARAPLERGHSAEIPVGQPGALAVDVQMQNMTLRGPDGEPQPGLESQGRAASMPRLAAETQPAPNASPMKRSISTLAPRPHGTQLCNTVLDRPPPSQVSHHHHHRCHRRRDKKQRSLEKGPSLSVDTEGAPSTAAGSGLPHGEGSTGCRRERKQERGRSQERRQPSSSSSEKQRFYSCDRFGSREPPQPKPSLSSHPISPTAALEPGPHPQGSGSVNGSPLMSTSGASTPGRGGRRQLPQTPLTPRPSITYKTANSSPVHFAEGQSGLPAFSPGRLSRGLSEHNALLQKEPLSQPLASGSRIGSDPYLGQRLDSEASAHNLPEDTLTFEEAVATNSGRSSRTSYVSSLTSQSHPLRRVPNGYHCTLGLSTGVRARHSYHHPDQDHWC

On to `O=C(NCC1CCN(C(=O)CCCCC(c2ccc(F)cc2)c2ccc(F)cc2)C1)c1cc(C(F)(F)F)cc(C(F)(F)F)c1` (centres unmarked) [Compound P24], for which the pIC50 in test [1] (setting [3]) was 6.42; in test [1] (setting [4]), 6.68; in test [2] (setting [5]) it was 7.92. Further, the “Maximum Possible Effect ± SEM, Phase I” value in the test with rat formalin model amounted to 66 ± 11%. The “Maximum Possible Effect ± SEM, Phase II” value with rat formalin model is 38 ± 7%. The “Maximum Possible Effect ± SEM, Phase IIA” value with rat formalin model was determined as 20 ± 4%.
Turning to `COc1c(C(C)(C)C)cc(C(=O)NCC2CCN(C(=O)CCCCC(c3ccc(F)cc3)c3ccc(F)cc3)C2)cc1C(C)(C)C` (centres unmarked) [Compound P13], in the test with rat formalin model, the “Maximum Possible Effect ± SEM, Phase I” value is on record as 85 ± 9%; the “Maximum Possible Effect ± SEM, Phase II” value worked out at 86 ± 7%; the “Maximum Possible Effect ± SEM, Phase IIA” value came to 86 ± 5%. Also, in test [2] (setting [6]), the negative-log IC50 (pIC50) was 9.15. Further, the pIC50 in test [2] (setting [5]) is 8.82.
As for `CN(CCN(c1ccccc1)c1ccccc1)CC1CCN(C(c2ccccc2)c2ccccc2)C1` (centres unmarked) [Compound P55], the negative logarithm of the IC50 (pIC50) was 6.49 in test [1] (setting [3]), 6.65 in test [1] (setting [4]), 7.74 in test [2] (setting [6]) and 7.24 in test [2] (setting [5]).
For the molecule `O=C(COc1ccc(F)cc1F)NCC1CCN(C(=O)CCCCC(c2ccc(F)cc2)c2ccc(F)cc2)C1` (centres unmarked) [Compound P31], the negative logarithm of the IC50 (pIC50) in test [1] (setting [3]) was 6.25; in test [1] (setting [4]), 6.66; in test [2] (setting [6]), 6.71; in test [2] (setting [5]), 6.34.
On the same counts, the results for `CN(C(=O)CN(CC(=O)N(C)c1ccccc1)CC1CCN(C(c2ccccc2)c2ccccc2)C1)c1ccccc1` (centres unmarked) [Compound P60] are 7.24, 7.35, 6.64 and 6.21.
On the same counts, the results for `O=C(CC(c1ccccc1)c1ccccc1)NCC1CCN(C(c2ccccc2)c2ccccc2Cl)C1` (centres unmarked) [Compound P37] are 7.64, 8.10, 7.55 and 6.95.
In the same order, the values of `CN(Cc1cc(C(F)(F)F)cc(C(F)(F)F)c1)CC1CCN(C(=O)CCCCC(c2ccc(F)cc2)c2ccc(F)cc2)C1` (centres unmarked) [Compound P57] are 6.65, 7.09, 7.55 and 6.94.
For the molecule `c1ccc(C(c2ccccc2)N2CCC(CN(CCN(c3ccccc3)c3ccccc3)CCN(c3ccccc3)c3ccccc3)C2)cc1` (centres unmarked) [Compound P59], the negative-log IC50 (pIC50) in test [1] (setting [3]) was 5.10; in test [1] (setting [4]), 5.70; in test [2] (setting [6]), 5.22; in test [2] (setting [5]), 4.40.
On to `O=C(NCC1CCN(C(=O)CCCCC(c2ccc(F)cc2)c2ccc(F)cc2)C1)c1cc(Br)c(O)c(Br)c1` (centres unmarked) [Compound P15], for which the values for the negative-log IC50 (pIC50) in test [1] (setting [3]) and in test [2] (setting [5]) were < 6.00 and < 5.00, respectively.
Regarding `O=C(CN(c1ccccc1)c1ccccc1)NCC1CCN(C(c2ccccc2)c2ccccc2)C1` (centres unmarked) [Compound P45], the negative logarithm of the IC50 (pIC50) in test [1] (setting [3]) was 6.29; in test [1] (setting [4]), 6.61; in test [2] (setting [6]) it was 7.17; in test [2] (setting [5]) it was 6.39.
Consider `O=C(NCC1CCN(C(=O)CCCCC(c2ccc(F)cc2)c2ccc(F)cc2)C1)c1cc(C(F)(F)F)cc(C(F)(F)F)c1` (centres unmarked) [Compound P49], for which the pIC50 was 6.87 in test [1] (setting [3]), 7.05 in test [1] (setting [4]), 8.10 in test [2] (setting [6]) and 7.74 in test [2] (setting [5]).
In the same order, the values of `O=C(CC(c1ccccc1)c1ccccc1)NCC1CCN(C(c2ccccc2)c2ccc(Cl)cc2)C1` (centres unmarked) [Compound P26] are 6.58, 6.63, 7.38 and 6.86.
As to `O=C(CC(c1ccccc1)c1ccccc1)NCC1CCN(C(c2ccccc2)c2ccc(C(F)(F)F)cc2)C1` (centres unmarked) [Compound P39], the negative logarithm of the IC50 (pIC50) in test [1] (setting [3]) was 6.75; in test [1] (setting [4]) it was 6.59; in test [2] (setting [6]) it was 8.52; in test [2] (setting [5]), 7.92.
With `COc1cc(CN(C)CC2CCN(C(=O)CCCCC(c3ccc(F)cc3)c3ccc(F)cc3)C2)cc(OC)c1OC` (centres unmarked) [Compound P58], the pIC50 in test [1] (setting [3]) was 6.92; in test [1] (setting [4]), 7.07; in test [2] (setting [6]) it was 7.24; in test [2] (setting [5]), 7.10.
Turning to `COc1cc(C(=O)NCC2CCN(C(=O)CCCCC(c3ccc(F)cc3)c3ccc(F)cc3)C2)cc(OC)c1OC` (centres unmarked) [Compound P3], the pIC50 in test [1] (setting [3]) was 6.38; in test [2] (setting [5]), 7.07.
